Results reported in US20140343143A1, “Use of highly concentrated compositions of selected n-3 fatty acids for the treatment of central nervous system disturbances” (priority 2004, published 2014).

What was measured:
[1] = system: pentylenetetrazol-induced major motor seizures; assay: Pentylenetetrazol (100 mg/kg i.p.)-induced seizures in rats (Example 4); assay type: in vivo, rat
Procedure: At the end, all the groups were treated with 100 mg/kg i.p. of pentylenetetrazol, and the animals underwent the following control exams: 1) length of latency period to the first major motor seizures (tonic-clonic contractions of the limbs, trunk and head; falling; saliva and blood discharge from the mouth); 2) number of rats responding with major motor seizures (or protected from seizure); 3) mean duration of the major motor seizure (MMS); 4) number of rats presenting minor clonic contractions (MCC), such as a sudden flexion of the forelegs or extension of the rear legs; 5) number of rats who died within 20 minutes or 5 hours after pentylenetetrazol injection.

[2] = system: seizures in study strain rats; assay: Preliminary determination of the epileptogenic ED50 of pentylenetetrazol; assay type: in vivo; conditions: Rattus norvegicus, ip, read-out: ED50 (dose effective on 50% of rats) of the epileptogenic agent, i.p., preliminary experiment
[3] = system: amphetamine-induced hyperactivity and risk-taking behaviour; assay: Amphetamine-induced behavioural model of mania, open field test in rats; conditions: sodium valproate 20 mg/kg i.p., short times, preliminary experiment
[4] = daily i.p. 2 weeks: n-3 50 mg/kg, clonazepam 5 mg/kg, or same doses combined, then pentylenetetrazol 100 mg/kg i.p., mean ± SD

O=C1CN=C(c2ccccc2Cl)c2cc([N+](=O)[O-])ccc2N1 [clonazepam]
Duration of seizures [1, 4]: 25 ± 6 s
Latency to seizures [1, 4]: 203 ± 12 s
Dead animals <20′ ([1]; died within 20 minutes after pentylenetetrazol injection, n/10): 2/10
Dead animals <5 h ([1]; died within 5 hours after pentylenetetrazol injection, n/10): 4/10
Rats with MMS (n/tot) ([1]; major motor seizures, same treatment, pentylenetetrazol 100 mg/kg i.p.): 1/10
Rats with MCC (n/tot) ([1]; minor clonic contractions, same treatment, pentylenetetrazol 100 mg/kg i.p.): 3/10

C1CCc2nnnn2CC1 [pentylenetetrazol]
ED50 [2]: 70 to 75 mg/kg

CCCC(CCC)C(=O)[O-].[Na+] [sodium valproate]
effect of valproate alone at the dose used in the combination [3]: ineffective when taken alone
